In patent publication US20100093661A1, “COMPOSITION COMPRISING CHITOSAN AND AN ACIDIC DRUG FOR ORAL CONTROLLED RELEASE” (The Jordanian Pharmaceutical Manufacturing Co., priority 2007, published 2010):

Tests used:
[1] = single 200-mg oral dose, fasting subjects; cited from earlier work
[2] = Water solubility; type: physicochemical

water solubility [2]	SMILES	time of peak plasma levels after administration [1]
–	CC(C)Cc1ccc(C(C)C(=O)O)cc1 (centres unmarked) [Ibuprofen]	about 1 hr
water insoluble	CC(=O)O.CC(C)Cc1ccc(C(C)C(=O)O)cc1 (centres unmarked) [Ibuprofen ethanoate]	–
